Test results published in ChEMBL document CHEMBL3046147, “Synthesis and Herbicidal Activity of 1-Arylalkyl-3-pyrrolin-2-one Derivatives” (J Pestic Sci, 2000).
The source made the active and inactive calls. The calls are words filed in the database; no cut-off is given here.

Legend:
[1] = system: Echinochloa oryzicola; assay: Herbicidal activity against Echinochloa oryzicola at 500 g /ha treated at 1.5 to 2-leaf stage measured after 26 days by outdoor concrete pot test; assay type: functional, organism-based
[2] = system: Echinochloa oryzicola; assay: Herbicidal activity against Echinochloa oryzicola under greenhouse condition assessed as growth inhibition at 250 g /ha measured after 6 days; assay type: functional, organism-based
[3] = system: Rotala indica; assay: Herbicidal activity against Rotala indica at 500 g /ha treated at 1 to 2-pairs of leaf stage measured after 26 days by outdoor concrete pot test; assay type: functional, organism-based
[4] = system: Pontederia vaginalis; assay: Herbicidal activity against Monochoria vaginalis at 1000 g /ha treated at 1.5 to 2-leaf stage measured after 26 days by outdoor concrete pot test; assay type: functional, organism-based
[5] = system: Cyperus serotinus; assay: Herbicidal activity against Cyperus serotinus at 1000 g /ha treated at 1 to 1.5-leaf stage measured after 26 days by outdoor concrete pot test; assay type: functional, organism-based
[6] = system: Echinochloa oryzicola; assay: Herbicidal activity against Echinochloa oryzicola grown in water-drained pot under greenhouse condition assessed as growth inhibition at 500 g /ha measured after 13 days; assay type: functional, organism-based
[7] = system: Cyperus serotinus; assay: Herbicidal activity against Cyperus serotinus at 250 g /ha treated at 1 to 1.5-leaf stage measured after 26 days by outdoor concrete pot test; assay type: functional, organism-based
[8] = system: Oryza sativa; assay: Phytotoxicity against two-leaf stage Oryza sativa cv. Nihonbare (rice) planted 1 cm depth measured after […]; assay type: organism-based; settings: in vivo
[9] = system: Echinochloa oryzicola; assay: Herbicidal activity against Echinochloa oryzicola under greenhouse condition assessed as growth inhibition at 500 g /ha measured after 42 days; assay type: functional, organism-based
[10] = system: Echinochloa oryzicola; assay: Herbicidal activity against Echinochloa oryzicola under greenhouse condition assessed as time duration of residual effect at 500 g /ha; assay type: functional
[11] = system: Lindernia procumbens; assay: Herbicidal activity against Lindernia procumbens at 1000 g /ha treated at 1 to 2-pairs of leaf stage measured after 26 days by outdoor concrete pot test; assay type: functional, organism-based
[12] = system: Cyperus serotinus; assay: Herbicidal activity against Cyperus serotinus at 500 g /ha treated at 1 to 1.5-leaf stage measured after 26 days by outdoor concrete pot test; assay type: functional, organism-based
[13] = system: Lindernia procumbens; assay: Herbicidal activity against Lindernia procumbens at 250 g /ha treated at 1 to 2-pairs of leaf stage measured after 26 days by outdoor concrete pot test; assay type: functional, organism-based
[14] = system: Pontederia vaginalis; assay: Herbicidal activity against Monochoria vaginalis at 250 g /ha treated at 1.5 to 2-leaf stage measured after 26 days by outdoor concrete pot test; assay type: functional, organism-based
[15] = system: Echinochloa oryzicola; assay: Herbicidal activity against Echinochloa oryzicola under greenhouse condition assessed as growth inhibition at 500 g /ha measured after 6 days; assay type: functional, organism-based
[16] = system: Sagittaria pygmaea; assay: Herbicidal activity against Sagittaria pygmaea at 250 g /ha treated at 0.5 to 1-leaf stage measured after 26 days by outdoor concrete pot test; assay type: functional, organism-based
[17] = system: Echinochloa oryzicola; assay: Herbicidal activity against Echinochloa oryzicola under greenhouse condition assessed as time duration of residual effect at 125 g /ha; assay type: functional
[18] = system: Echinochloa oryzicola; assay: Herbicidal activity against Echinochloa oryzicola under greenhouse condition assessed as growth inhibition at 500 g /ha measured after 13 days; assay type: functional, organism-based
[19] = system: Echinochloa oryzicola; assay: Herbicidal activity against Echinochloa oryzicola at 1000 g /ha treated at 1.5 to 2-leaf stage measured after 26 days by outdoor concrete pot test; assay type: functional, organism-based
[20] = system: Elatine triandra; assay: Herbicidal activity against Elatine triandra at 250 g /ha treated at 1 to 2-pairs of leaf stage measured after 26 days by outdoor concrete pot test; assay type: functional, organism-based
[21] = system: Echinochloa oryzicola; assay: Herbicidal activity against Echinochloa oryzicola under greenhouse condition assessed as growth inhibition at 125 g /ha measured after 6 days; assay type: functional, organism-based
[22] = system: Echinochloa oryzicola; assay: Herbicidal activity against Echinochloa oryzicola under greenhouse condition assessed as growth inhibition at 500 g /ha measured after 27 days; assay type: functional, organism-based
[23] = system: Echinochloa oryzicola; assay: Herbicidal activity against Echinochloa oryzicola under greenhouse condition assessed as growth inhibition at 250 g /ha measured after 27 days; assay type: functional, organism-based
[24] = system: Echinochloa oryzicola; assay: Herbicidal activity against Echinochloa oryzicola under greenhouse condition assessed as growth inhibition at 250 g /ha measured after 20 days; assay type: functional, organism-based
[25] = system: Echinochloa oryzicola; assay: Herbicidal activity against Echinochloa oryzicola grown in water-drained pot under greenhouse condition assessed as growth inhibition at 500 g /ha measured after 33 days; assay type: functional, organism-based
[26] = system: Echinochloa oryzicola; assay: Herbicidal activity against Echinochloa oryzicola under greenhouse condition assessed as growth inhibition at 1000 g /ha measured after 6 days; assay type: functional, organism-based
[27] = system: Echinochloa oryzicola; assay: Herbicidal activity against Echinochloa oryzicola grown in water-drained pot under greenhouse condition assessed as growth inhibition at 125 g /ha measured after 6 days; assay type: functional, organism-based
[28] = system: Echinochloa oryzicola; assay: Herbicidal activity against Echinochloa oryzicola at 250 g /ha treated at 1.5 to 2-leaf stage measured after 26 days by outdoor concrete pot test; assay type: functional, organism-based
[29] = system: Oryza sativa; assay: Phytotoxicity against two-leaf stage Oryza sativa cv. Nihonbare (rice) planted 3 cm depth measured after […]; assay type: organism-based; settings: in vivo
[30] = system: Echinochloa oryzicola; assay: Herbicidal activity against Echinochloa oryzicola under greenhouse condition assessed as growth inhibition at 250 g /ha measured after 33 days; assay type: functional, organism-based
[31] = system: Schoenoplectiella juncoides; assay: Herbicidal activity against Schoenoplectiella juncoides at 250 g /ha treated at 1.5 to 2.1-leaf stage measured after 26 days by outdoor concrete pot test; assay type: functional, organism-based
[32] = system: Sagittaria pygmaea; assay: Herbicide activity against Sagittaria pygmaea under greenhouse condition compound treated at 0.5 leaf-stage measured after 14 to 20 days; assay type: functional
[33] = system: Pontederia vaginalis; assay: Herbicidal activity against Monochoria vaginalis at 500 g /ha treated at 1.5 to 2-leaf stage measured after 26 days by outdoor concrete pot test; assay type: functional, organism-based
[34] = system: Echinochloa oryzicola; assay: Herbicidal activity against Echinochloa oryzicola under greenhouse condition assessed as growth inhibition at 500 g /ha measured after 20 days; assay type: functional, organism-based
[35] = system: Sagittaria pygmaea; assay: Herbicidal activity against Sagittaria pygmaea at 1000 g /ha treated at 0.5 to 1-leaf stage measured after 26 days by outdoor concrete pot test; assay type: functional, organism-based
[36] = system: Echinochloa oryzicola; assay: Herbicidal activity against Echinochloa oryzicola under greenhouse condition assessed as growth inhibition at 1000 g /ha measured after 13 days; assay type: functional, organism-based
[37] = system: Echinochloa oryzicola; assay: Herbicidal activity against Echinochloa oryzicola grown in water-drained pot under greenhouse condition assessed as time duration of residual effect at 125 g /ha; assay type: functional
[38] = system: Echinochloa oryzicola; assay: Herbicidal activity against Echinochloa oryzicola grown in water-drained pot under greenhouse condition assessed as growth inhibition at 500 g /ha measured after 27 days; assay type: functional, organism-based
[39] = system: Echinochloa oryzicola; assay: Herbicidal activity against Echinochloa oryzicola grown in water-drained pot under greenhouse condition assessed as growth inhibition at 125 g /ha measured after 20 days; assay type: functional, organism-based
[40] = system: Echinochloa oryzicola; assay: Herbicidal activity against Echinochloa oryzicola under greenhouse condition assessed as growth inhibition at 250 g /ha measured after 42 days; assay type: functional, organism-based
[41] = system: Echinochloa oryzicola; assay: Pre-emergence herbicide activity against Echinochloa oryzicola under greenhouse condition measured after 14 to 20 days; assay type: functional
[42] = system: Schoenoplectiella juncoides; assay: Herbicide activity against Schoenoplectiella juncoides under greenhouse condition compound treated at emergence-stage measured after 14 to 20 days; assay type: functional
[43] = system: Echinochloa oryzicola; assay: Herbicidal activity against Echinochloa oryzicola under greenhouse condition assessed as growth inhibition at 125 g /ha measured after 42 days; assay type: functional, organism-based
[44] = system: Echinochloa oryzicola; assay: Herbicidal activity against Echinochloa oryzicola under greenhouse condition assessed as growth inhibition at 125 g /ha measured after 27 days; assay type: functional, organism-based
[45] = system: Schoenoplectiella juncoides; assay: Herbicidal activity against Schoenoplectiella juncoides at 1000 g /ha treated at 1.5 to 2.1-leaf stage measured after 26 days by outdoor concrete pot test; assay type: functional, organism-based
[46] = system: Echinochloa oryzicola; assay: Herbicidal activity against Echinochloa oryzicola under greenhouse condition assessed as growth inhibition at 1000 g /ha measured after 42 days; assay type: functional, organism-based

SMILES: CC1=C(c2ccccc2)C(=O)N(C(C)(C)c2nc3ccccc3s2)C1
- growth inhibition (GI) [1]: Active
- growth inhibition (GI) [2]: Active
- growth inhibition (GI) [3]: Active
- growth inhibition (GI) [4]: Active
- growth inhibition (GI) [5]: Active
- growth inhibition (GI) [6]: Active
- growth inhibition (GI) [7]: Active
- MTD [8]: 2.5 g/acre
- growth inhibition (GI) [9]: Active
- Time [10]: >42 days
- growth inhibition (GI) [11]: Active
- growth inhibition (GI) [12]: Active
- growth inhibition (GI) [13]: Active
- growth inhibition (GI) [14]: inactive
- growth inhibition (GI) [15]: Active
- growth inhibition (GI) [16]: inactive
- Time [17]: 30 days
- growth inhibition (GI) [18]: Active
- growth inhibition (GI) [19]: Active
- growth inhibition (GI) [20]: Active
- growth inhibition (GI) [21]: Active
- growth inhibition (GI) [22]: Active
- growth inhibition (GI) [23]: inactive
- growth inhibition (GI) [24]: Active
- growth inhibition (GI) [25]: Active
- growth inhibition (GI) [26]: Active
- growth inhibition (GI) [27]: Active
- growth inhibition (GI) [28]: Active
- MTD [29]: 10 g/acre
- growth inhibition (GI) [30]: inactive
- growth inhibition (GI) [31]: inactive
- MED [32]: 20 g/acre
- growth inhibition (GI) [33]: Active
- growth inhibition (GI) [34]: Active
- growth inhibition (GI) [35]: Active
- growth inhibition (GI) [36]: Active
- Time [37]: 27 days
- growth inhibition (GI) [38]: Active
- growth inhibition (GI) [39]: inactive
- growth inhibition (GI) [40]: inactive
- MED [41]: 0.313 g/acre
- MED [42]: 20 g/acre
- growth inhibition (GI) [43]: Active
- growth inhibition (GI) [44]: Active
- growth inhibition (GI) [45]: inactive
- growth inhibition (GI) [46]: Active
